Assay results reported in US9546157B2, “Asymmetric piperidinyl-substituted ureas as medicines” (Helsinn Healthcare SA, priority 2014, dated 2017).
Entries after “also recorded” stand apart in the source; their conditions may differ.

How the values were obtained:
GHSR1a [1] = biological target: T1, GHSR1a (Homo sapiens, UniProt Q92847); assay: Calcium FLIPR assay, GHSR-1a antagonism (reduction of ghrelin response); format: cell-based; settings: HEK293/GHSR1a cells, ghrelin 10 nM
T1 construct: expressed in transfected cells; host or cells: HEK293
T1 sequence (Q92847 whole entry): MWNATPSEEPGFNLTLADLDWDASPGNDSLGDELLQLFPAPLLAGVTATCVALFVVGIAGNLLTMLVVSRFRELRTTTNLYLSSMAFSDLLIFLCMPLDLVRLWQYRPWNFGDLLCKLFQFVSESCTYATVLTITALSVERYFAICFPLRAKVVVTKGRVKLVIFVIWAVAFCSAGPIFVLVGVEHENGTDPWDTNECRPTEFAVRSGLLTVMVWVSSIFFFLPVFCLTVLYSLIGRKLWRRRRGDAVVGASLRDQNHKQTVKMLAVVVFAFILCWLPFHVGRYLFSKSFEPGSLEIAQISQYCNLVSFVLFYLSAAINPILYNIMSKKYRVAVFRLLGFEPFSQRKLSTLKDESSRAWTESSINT
In short: (§1)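 Calcium dye-loaded HEK293/GHSR1a cells were monitored by FLIPR fluorescence for 2 min after additions at t=20 s. For antagonist mode, compound was co-added with ghrelin (10 nM) and scored by lowering the ghrelin signal. Agonist mode added compound alone; EC50 and IC50 came from dose-response data.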

GHSR1a [2] = biological target: T1, GHSR1a; assay: Calcium FLIPR assay, GHSR-1a agonism; format: cell-based; set-up: Emax: unit not given here; settings: HEK293/GHSR1a cells
In short: as §1

C57BL/6J mice = assay: Food intake test in mouse (GHSR1a antagonists); format: in vivo; settings: for inhibition in vivo at 10 mg/kg: Mus musculus, ip, 1 h, i.p. 10 mg/kg
In short: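 Male C57BL/6J mice (18-22 g) were fasted overnight (16 h before dosing), then randomized by body weight to vehicle or test agent (n=6 each). Cumulative food intake was measured at 1, 2, 4, 8 and 24 hrs post-dose as premeasured food minus uneaten food.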

[3] = Metabolic Stability (H = Human); format: in vitro ADME
[4] = Metabolic Stability (M = Mouse); format: in vitro ADME
Metabolic Stability (R) = format: in vitro ADME; settings: R (not defined)
Metabolic Stability (D) = format: in vitro ADME; settings: D (not defined)
rat = assay: Food intake in rat (PO, with or without ANA); format: in vivo
[5] = system: female Sprague-Dawley rats; assay: Binge eating model in non-estrous female rats (food restriction + stress, HPF intake); format: in vivo, rat; settings: for HPF intake (binge eating) in R+S rats: 60 mg/kg by gavage 1 h before access to HPF
Procedure: In this Example, the therapeutic potential of compounds were tested for their ability to inhibit binge eating. The animal model used was developed to explore the combination of food restriction and stress. […] Considering the reliability and the robustness of this model, it was adopted to test the inventive compounds.
A total of N=117, 52-day-old female Sprague-Dawley rats (175-200 g) were used. Rats were acclimated in individual cages with metallic walls; the floor and the front wall made of metallic grid. The dimensions of the cage floor being 30 cm×30 cm; the cage is 30 cm high. A front door (30 cm×20 cm) made of metallic grid was positioned in the anterior wall of the cage to gain access to the inside of the cage; the remaining part of the front wall was equipped with a drinking burette.
Rats were kept in a room at constant temperature (20-22° C.) and humidity (45-55%) under a 12-h light/dark cycle (lights on at 08:00 am) with ad lib chow and water. All procedures were conducted in adherence to the European Community Directive for Care and Use of Laboratory Animals.
Rats were offered food pellets, 4RF18, Mucedola, Settimo Milanese, Italy (2.6 kcal/g). The Highly Palatable Food (HPF) was prepared by mixing:
Rats were exposed to 3 consecutive 8-day cycles followed by the final test on day 25:
a) the control group (NR+NS) had chow ad libitum for 4 days, on days 5-6 it received chow+HPF for 2 h; on days 7-8 it had chow ad libitum; on day 25 it was not exposed to stress;
b) the second group (R+S) had chow restricted to 66% of the normal intake for 4 days, was offered chow and HPF (2 h) on days 5-6 and only chow on days 7-8; on day 25 it […].
Body weights and food intake were recorded daily. Food intake is expressed as mean kilocalories per kilogram ingested±SEM.
Therefore, immediately after the test on day 25, vaginal smears were collected and analyzed under microscope to assess the ovarian phase, and data from rats in the estrous phase were not included in the statistical analysis. Vaginal smears were analyzed by an experienced experimenter blind to treatment conditions.
For 15 min, the container (China coffee cup) containing HPF is placed outside the cage; the container handle is hooked to the top wire wall of the cage in the hollow part where food pellets are usually offered. In these conditions, the animal is able to see the cup in which it received HPF on days 5, 6, 13, and 14 of the first two cycles, is able to see in part the HPF itself, and is able to smell its odour. In this 15-min period, the rat engages in repeated movements of the forepaws, head, and trunk aimed at obtaining the HPF, but it is not able to reach it. Rats undergo the stressful procedure between 10.00 and 12.00 am. After 15 min, the cup is placed inside the cage of the rats in the stress group (R+S), so that the HPF became accessible to the rat.
100 mg of each compound (H0816, H0860, H0847 and H0900) was accurately weighed and suspended in 13.33 ml of 0.5% carboxymethyl cellulose sodium salt (CMC, Sigma-Aldrich Cat. C4888, lot 120M0216V) solution. The lower dose solution was prepared by dilution of 30 mg/ml suspension with 0.5% CMC solution. Suspensions were prepared freshly on test day. Vehicle was composed by a solution of 0.5% carboxymethyl cellulose sodium salt and was prepared by dissolving 1 g of CMC in 200 ml of distilled water. 180 mg of Topiramate was accurately weighed and suspended in 12 ml of 0.5% CMC solution. Compounds (vehicle and active principles) were administered by gavage in a volume of 4 ml/kg of body weight one hour before access to HPF.
All data are expressed as the mean±s.e.m. and each value reflects the mean number of animals per group as described in the legends. For data evaluation, the analysis of variance (ANOVA) was used followed by post-hoc (Bonferroni's) test when appropriate. Statistical significance was set at P<0.05. The Software used for the Graphs was Origin 7.0. […]

[6] = PO 10 mg/kg + ANA (ANAM) 30 mg/kg mice
[7] = first test, acute administration (compounds 3 and 30 mg/kg, Topiramate 60 mg/kg)
[8] = second test, H0816 3, 10 and 30 mg/kg, Topiramate 60 mg/kg

SMILES: C[C@H](NC(=O)N(C)C1CCN(C)C1)c1ccc(-c2cnccn2)c(Cl)c1Cl (mixture of isomers) [Compound H0837, 3-((S)-1-(2,3-dichloro-4-(pyrazin-2-yl)phenyl)ethyl)-1-methyl-1-(1-methylpyrrolidin-3-yl)urea]
- IC50 (GHSR1a [1]): 2 nM
- EC50 (GHSR1a [2]): > 30000 nM
- Mouse Food Intake % increase (C57BL/6J mice; 2 h, 30 mg/kg PO mice): 180%
- Mouse Food Intake, result in words (C57BL/6J mice; [6]): NSE
- Metabolic Stability H [3]: High H High M High R High D
- Metabolic Stability M [4]: High H High M High R High D
- Metabolic Stability R (Metabolic Stability (R)): High H High M High R High D
- Metabolic Stability D (Metabolic Stability (D)): High H High M High R High D

SMILES: CC(NC(=O)N(C)C1CCN(C)CC1)c1ccc(C#Cc2cscn2)c(Cl)c1Cl (stereo not drawn) [Compound H0751, 3-(1-(2,3-dichloro-4-(thiazol-4-ylethynyl)phenyl)ethyl)-1-methyl-1-(1-methylpiperidin-4-yl)urea]
- IC50 (GHSR1a [1]): 6 nM
- EC50 (GHSR1a [2]): 62 nM
- Emax (GHSR1a [2]): 1267
- inhibition in vivo at 10 mg/kg (C57BL/6J mice): 91%
- Mouse Food Intake, result in words (C57BL/6J mice; PO, dose not given): no effect
- Metabolic Stability H [3]: High H High M
- Metabolic Stability M [4]: High H High M
- Food intake in rat, result in words (rat; PO + ANA): no effect

SMILES: CC(NC(=O)N(C)C1CCN(C)CC1)c1ccc(C#Cc2ccco2)c(Cl)c1Cl (stereo not drawn) [Compound H0762, 3-(1-(2,3-dichloro-4-(furan-2-ylethynyl)phenyl)ethyl)-1-methyl-1-(1-methylpiperidin-4-yl)urea]
- IC50 (GHSR1a [1]): 5 nM
- EC50 (GHSR1a [2]): > 30000 nM
- inhibition in vivo at 10 mg/kg (C57BL/6J mice): 93%
- Mouse Food Intake, result in words (C57BL/6J mice; PO, dose not given): NSEt
- Metabolic Stability H [3]: High H High M
- Metabolic Stability M [4]: High H High M
- Food intake in rat, result in words (rat; PO): NSEt

SMILES: CC(NC(=O)N(C)C1CCN(C)CC1)c1ccc(-c2cncc(F)n2)c(Cl)c1Cl (stereo not drawn) [Compound H0795, 3-(1-(2,3-dichloro-4-(6-fluoropyrazin-2-yl)phenyl)ethyl)-1-methyl-1-(1-methylpiperidin-4-yl)urea]
- IC50 (GHSR1a [1]): 4 nM
- EC50 (GHSR1a [2]): > 30000 nM
- Mouse Food Intake, result in words (C57BL/6J mice; PO + ANA (ANAM), mice, dose not given): inhib
- Mouse Food Intake, result in words (C57BL/6J mice; PO, dose not given): NSE
- Metabolic Stability H [3]: High H High M
- Metabolic Stability M [4]: High H High M
- Food intake in rat, result in words (rat; PO + ANA): no activity

SMILES: CC(NC(=O)N(Cc1ccccc1)C1CCN(C)CC1)c1ccc(-c2cnccn2)c(Cl)c1Cl (stereo not drawn) [Compound H0825, 1-benzyl-3-(1-(2,3-dichloro-4-(pyrazin-2-yl)phenyl)ethyl)-1-(1-methylpiperidin-4-yl)urea]
- IC50 (GHSR1a [1]): 10 nM
- EC50 (GHSR1a [2]): > 30000 nM
- Metabolic Stability H [3]: Medium H Medium M Medium R
- Metabolic Stability M [4]: Medium H Medium M Medium R
- Metabolic Stability R (Metabolic Stability (R)): Medium H Medium M Medium R

SMILES: CCN(C(=O)NC(C)c1ccc(-c2cnccn2)c(Cl)c1Cl)C1CCN(C)CC1 (stereo not drawn) [Compound H0826, 3-(1-(2,3-dichloro-4-(pyrazin-2-yl)phenyl)ethyl)-1-ethyl-1-(1-methylpiperidin-4-yl)urea]
- IC50 (GHSR1a [1]): 5 nM
- EC50 (GHSR1a [2]): > 30000 nM
- Metabolic Stability H [3]: High
- Metabolic Stability M [4]: High
- Metabolic Stability R (Metabolic Stability (R)): High
- Metabolic Stability D (Metabolic Stability (D)): Medium

SMILES: CN1CCC(N(C)C(=O)NC(c2ccc(-c3cnccn3)c(Cl)c2Cl)C(F)(F)F)CC1 (stereo not drawn) [Compound H0830, 3-(1-(2,3-dichloro-4-(pyrazin-2-yl)phenyl)-2,2,2-trifluoroethyl)-1-methyl-1-(1-methylpiperidin-4-yl)urea]
- IC50 (GHSR1a [1]): 3 nM
- EC50 (GHSR1a [2]): > 30000 nM
- Metabolic Stability H [3]: High
- Metabolic Stability M [4]: High
- Metabolic Stability R (Metabolic Stability (R)): High
- Metabolic Stability D (Metabolic Stability (D)): Medium

SMILES: C[C@@H](NC(=O)N(C)C1CCN(C)CC1)c1ccc(-c2cncc(F)n2)c(Cl)c1Cl [Compound H0848, (R)-3-(1-(2,3-dichloro-4-(6-fluoropyrazin-2-yl)phenyl)ethyl)-1-methyl-1-(1-methylpiperidin-4-yl)urea]
- IC50 (GHSR1a [1]): 432 nM
- EC50 (GHSR1a [2]): > 30000 nM
- Mouse Food Intake, result in words (C57BL/6J mice; [6]): PO 10 mg/kg + ANA 30 mg/kg mice: NSE
- Metabolic Stability H [3]: Medium
- Metabolic Stability M [4]: High

SMILES: CN1CC[C@@H](N(C)C(=O)NC(c2ccc(-c3cnccn3)c(Cl)c2Cl)C(F)(F)F)C(C)(C)C1 (stereo partly drawn) [Compound H0865, 3-(1-(2,3-dichloro-4-(pyrazin-2-yl)phenyl)-2,2,2-trifluoroethyl)-1-methyl-1-((R)-1,3,3-trimethylpiperidin-4-yl)urea]
- IC50 (GHSR1a [1]): 6 nM
- EC50 (GHSR1a [2]): > 30000 nM
- Metabolic Stability H [3]: Medium
- Metabolic Stability M [4]: Low
- Metabolic Stability R (Metabolic Stability (R)): Medium

SMILES: CC1(C)O[C@@H]2[C@@H](CO[C@@]3(COS(N)(=O)=O)OC(C)(C)O[C@@H]23)O1 [Topiramate, reference compound]
- HPF intake (binge eating) in R+S rats ([5]; first test, vs R+S vehicle, 60 mg/kg): confirmed its inhibitory effect; also recorded: statistically significant at all time points; also recorded: completely abolished BE episode
- 2-h chow food intake during binge eating test [5, 7]: did not modify 2-h chow intake
- 24-h chow food intake after binge eating test [5, 7]: did not modify 24-h chow intake
- HPF intake (binge eating) in R+S rats ([5]; second test): statistically significant at all time points
- 2-h chow intake [5, 8]: did not modify
- 24-h chow intake [5, 8]: did not modify
